Experimental data from patent publication US9284321B2, “Piperazino[1,2-a]indol-1-ones and [1,4]diazepino[1,2-a]indol-1-one” (Hoffmann-La Roche Inc., priority 2012, dated 2016).

Legend:
[1] = tested on: human embryonic stem cell derived neural stem cells (NSCs); assay: Neural Stem Cell Proliferation Assay (neurogenesis assay, ATP levels by CellTiterGlo); type: cell-based; conditions: 96 h, compound concentration at which 150% activity of control (100%) is reached, NSC proliferation by ATP level after 4 days incubation, dose response 8 μM to 8 nM
How it was run: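 Human ESC-derived NSCs (dual SMAD inhibition) seeded 4 h before compounds, 11-point 2-fold series 8 μM–8 nM; 4 days at 37 °C, 5% CO2. ATP by CellTiterGlo luminescence as cell-number proxy, response as % of media control (0.25% DMSO); EC150 = concentration giving 150% of control.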

| melting point [°C] | Structure (SMILES) | EC (150% of control) [1] [µM] |
| --- | --- | --- |
| 213 | Cc1c2n(c3c(-c4ccc(Cl)cc4Cl)cc(Cl)cc13)CCNC2=O [Example 102, 8-Chloro-6-(2,4-dichloro-phenyl)-10-methyl-3,4-dihydro-2H-pyrazino[1,2-a]indol-1-one] | 0.009 |
| 244.5 | Cc1c2n(c3c(-c4ccc5c(c4)OCO5)cc(Cl)cc13)CCNC2=O [Example 103, 6-Benzo[1,3]dioxol-5-yl-8-chloro-10-methyl-3,4-dihydro-2H-pyrazino[1,2-a]indol-1-one] | 0.018 |
| 290 | Cc1c2n(c3c(-c4ccc(C#N)cc4)cc(Cl)cc13)CCNC2=O [Example 104, 4-(8-Chloro-10-methyl-1-oxo-1,2,3,4-tetrahydro-pyrazino[1,2-a]indol-6-yl)-benzonitrile] | 0.015 |
| 225 | Cc1ccc(-c2cc(Cl)cc3c(C)c4n(c23)CCNC4=O)cc1F [Example 105, 8-Chloro-6-(3-fluoro-4-methyl-phenyl)-10-methyl-3,4-dihydro-2H-pyrazino[1,2-a]indol-1-one] | 0.029 |
| 194.5 | Cc1c2n(c3c(-c4ccc(C(C)C)cc4)cc(Cl)cc13)CCNC2=O [Example 106, 8-Chloro-6-(4-isopropyl-phenyl)-10-methyl-3,4-dihydro-2H-pyrazino[1,2-a]indol-1-one] | 0.05 |
| 321.5 | Cc1c2n(c3c(-c4ccc(S(C)(=O)=O)cc4)cc(Cl)cc13)CCNC2=O [Example 107, 8-Chloro-6-(4-methanesulfonyl-phenyl)-10-methyl-3,4-dihydro-2H-pyrazino[1,2-a]indol-1-one] | 0.027 |
| 290.5 | Cc1c2n(c3c(-c4ccnc(F)c4)cc(Cl)cc13)CCNC2=O [Example 108, 8-Chloro-6-(2-fluoro-pyridin-4-yl)-10-methyl-3,4-dihydro-2H-pyrazino[1,2-a]indol-1-one] | 0.021 |
| 313.5 | Cc1c2n(c3c(-c4ccc([N+](=O)[O-])cc4)cc(Cl)cc13)CCNC2=O [Example 109, 8-Chloro-10-methyl-6-(4-nitro-phenyl)-3,4-dihydro-2H-pyrazino[1,2-a]indol-1-one] | 0.007 |
| 211 | Cc1c2n(c3c(-c4ccc(CO)cc4)cc(Cl)cc13)CCNC2=O [Example 110, 8-Chloro-6-(4-hydroxymethyl-phenyl)-10-methyl-3,4-dihydro-2H-pyrazino[1,2-a]indol-1-one] | 0.014 |
| 196 | COc1ccc(-c2cc(Cl)cc3c(C)c4n(c23)CCNC4=O)cn1 [Example 111, 8-Chloro-6-(6-methoxy-pyridin-3-yl)-10-methyl-3,4-dihydro-2H-pyrazino[1,2-a]indol-1-one] | 0.015 |
| 276 | Cc1c2n(c3c(-c4ccc(Cl)nc4)cc(Cl)cc13)CCNC2=O [Example 112, 8-Chloro-6-(6-chloro-pyridin-3-yl)-10-methyl-3,4-dihydro-2H-pyrazino[1,2-a]indol-1-one] | 0.012 |
| 227 | Cc1c2n(c3c(-c4ccc(N(C)C)cc4)cc(Cl)cc13)CCNC2=O [Example 113, 8-Chloro-6-(4-dimethylamino-phenyl)-10-methyl-3,4-dihydro-2H-pyrazino[1,2-a]indol-1-one] | 0.01 |
| 270 | Cc1c2n(c3c(-c4ccc(F)nc4)cc(Cl)cc13)CCNC2=O [Example 114, 8-Chloro-6-(6-fluoro-pyridin-3-yl)-10-methyl-3,4-dihydro-2H-pyrazino[1,2-a]indol-1-one] | 0.04 |
| 218.5 | Cc1c2n(c3c(-c4cccc(Cl)c4)cc(Cl)cc13)CCNC2=O [Example 115, 8-Chloro-6-(3-chloro-phenyl)-10-methyl-3,4-dihydro-2H-pyrazino[1,2-a]indol-1-one] | 0.43 |
| 261 | Cc1c2n(c3c(-c4ccc5c(c4)CCO5)cc(Cl)cc13)CCNC2=O [Example 116, 8-Chloro-6-(2,3-dihydro-benzofuran-5-yl)-10-methyl-3,4-dihydro-2H-pyrazino[1,2-a]indol-1-one] | 0.055 |
| 199 | Cc1c2n(c3c(-c4cccc(C#N)c4)cc(Cl)cc13)CCNC2=O [Example 117, 3-(8-Chloro-10-methyl-1-oxo-1,2,3,4-tetrahydro-pyrazino[1,2-a]indol-6-yl)-benzonitrile] | 0.4 |
| 252 | Cc1c2n(c3c(-c4ccc(C(C)(C)C)cc4)cc(Cl)cc13)CCNC2=O [Example 118, 6-(4-tert-Butyl-phenyl)-8-chloro-10-methyl-3,4-dihydro-2H-pyrazino[1,2-a]indol-1-one] | 0.15 |

Second part, the compound before the results:

| Structure (SMILES) | melting point [°C] | EC (150% of control) [1] [µM] |
| --- | --- | --- |
| Cc1c2n(c3c(-c4cc(F)cc(F)c4)cc(F)cc13)CCNC2=O [Example 84, 6-(3,5-Difluoro-phenyl)-8-fluoro-10-methyl-3,4-dihydro-2H-pyrazino[1,2-a]indol-1-one] | 250 | 0.15 |
| Cc1c2n(c3c(-c4ccc(Cl)c(F)c4)cc(F)cc13)CCNC2=O [Example 85, 6-(4-Chloro-3-fluoro-phenyl)-8-fluoro-10-methyl-3,4-dihydro-2H-pyrazino[1,2-a]indol-1-one] | 216 | 0.04 |
| Cc1c2n(c3c(-c4ccc(Cl)c(Cl)c4)cc(F)cc13)CCNC2=O [Example 86, 6-(3,4-Dichloro-phenyl)-8-fluoro-10-methyl-3,4-dihydro-2H-pyrazino[1,2-a]indol-1-one] | 224 | 0.05 |
| Cc1c2n(c3c(-c4cccc(F)c4)cc(F)cc13)CCNC2=O [Example 87, 8-Fluoro-6-(3-fluoro-phenyl)-10-methyl-3,4-dihydro-2H-pyrazino[1,2-a]indol-1-one] | 222 | 0.1 |
| Cc1c2n(c3c(-c4ccccc4)cc(Cl)cc13)CCNC2=O [Example 88, 8-Chloro-10-methyl-6-phenyl-3,4-dihydro-2H-pyrazino[1,2-a]indol-1-one] | 230.5 | 0.053 |
| Cc1ccc(-c2cc(Cl)cc3c(C)c4n(c23)CCNC4=O)cc1 [Example 89, 8-Chloro-10-methyl-6-p-tolyl-3,4-dihydro-2H-pyrazino[1,2-a]indol-1-one] | 251.5 | 0.01 |
| Cc1c2n(c3c(-c4ccc(C(F)(F)F)cc4)cc(Cl)cc13)CCNC2=O [Example 90, 8-Chloro-10-methyl-6-(4-trifluoromethyl-phenyl)-3,4-dihydro-2H-pyrazino[1,2-a]indol-1-one] | 260.5 | 0.017 |
| Cc1c2n(c3c(-c4ccncc4)cc(Cl)cc13)CCNC2=O [Example 91, 8-Chloro-10-methyl-6-pyridin-4-yl-3,4-dihydro-2H-pyrazino[1,2-a]indol-1-one] | 295 | 0.017 |
| N#Cc1cc(-c2ccncc2)c2c(c1)cc1n2CCNC1=O [Example 92, 1-Oxo-6-pyridin-4-yl-1,2,3,4-tetrahydro-pyrazino[1,2-a]indole-8-carbonitrile] | 315.5 | 0.047 |
| N#Cc1cc(-c2ccccc2)c2c(c1)cc1n2CCNC1=O [Example 93, 1-Oxo-6-phenyl-1,2,3,4-tetrahydro-pyrazino[1,2-a]indole-8-carbonitrile] | 265.5 | 0.035 |
| Cc1ccc(-c2cc(C#N)cc3cc4n(c23)CCNC4=O)cc1 [Example 94, 1-Oxo-6-p-tolyl-1,2,3,4-tetrahydro-pyrazino[1,2-a]indole-8-carbonitrile] | 285.5 | 0.011 |
| N#Cc1cc(-c2ccc(C(F)(F)F)cc2)c2c(c1)cc1n2CCNC1=O [Example 95, 1-Oxo-6-(4-trifluoromethyl-phenyl)-1,2,3,4-tetrahydro-pyrazino[1,2-a]indole-8-carbonitrile] | 359 | 0.018 |
| Cc1c2n(c3c(-c4cccc(F)c4)cc(Cl)cc13)CCNC2=O [Example 96, 8-Chloro-6-(3-fluoro-phenyl)-10-methyl-3,4-dihydro-2H-pyrazino[1,2-a]indol-1-one] | 239 | 0.15 |
| Cc1c2n(c3c(-c4ccc(Cl)c(Cl)c4)cc(Cl)cc13)CCNC2=O [Example 97, 8-Chloro-6-(3,4-dichloro-phenyl)-10-methyl-3,4-dihydro-2H-pyrazino[1,2-a]indol-1-one] | 240 | 0.056 |
| Cc1c2n(c3c(-c4ccc(Cl)c(F)c4)cc(Cl)cc13)CCNC2=O [Example 98, 8-Chloro-6-(4-chloro-3-fluoro-phenyl)-10-methyl-3,4-dihydro-2H-pyrazino[1,2-a]indol-1-one] | 242.5 | 0.019 |
| Cc1c2n(c3c(-c4cc(F)cc(F)c4)cc(Cl)cc13)CCNC2=O [Example 99, 8-Chloro-6-(3,5-difluoro-phenyl)-10-methyl-3,4-dihydro-2H-pyrazino[1,2-a]indol-1-one] | 241 | 0.12 |
| Cc1c2n(c3c(-c4ccc(F)cc4F)cc(Cl)cc13)CCNC2=O [Example 100, 8-Chloro-6-(2,4-difluoro-phenyl)-10-methyl-3,4-dihydro-2H-pyrazino[1,2-a]indol-1-one] | 238 | 0.009 |
| Cc1c2n(c3c(-c4ccc(Cl)cc4F)cc(Cl)cc13)CCNC2=O [Example 101, 8-Chloro-6-(4-chloro-2-fluoro-phenyl)-10-methyl-3,4-dihydro-2H-pyrazino[1,2-a]indol-1-one] | 251.5 | 0.006 |
